These results are taken from patent US4264590A, “Antibacterial peptide” (Abbott Laboratories, priority 1980, dated 1981).

Assay [1] relates to S. aureus (Smith). Briefly: mouse protection test, CD50 (Table III). It counts as in vivo. The note with it: for F.I.C. Index / CD50 (mg/kg) Combination: S. aureus (Smith) in mice, dipeptide:D-cycloserine 10:1; for CD50 (mg/kg) Combination: amount of peptide only listed, D-cycloserine is 10% of it; for CD50 (mg/kg) Peptide: mice infected i.p. with S. aureus (Smith), dosed subcutaneously, 7 days survival, peptide alone. On the procedure:
(§1) Charles River mice, weighing approximately 20 g. each, are infected intraperitoneally with 10-100 times the LD of the infecting organism. At predetermined intervals post-infection, e.g., 1 and 5 hours, mice are dosed subcutaneously with graded doses of the halogenated peptide, antibiotic and combination thereof. The number of mice surviving each treatment for 7 days post-infection is observed and the CD50 is calculated. The fractional inhibitory concentration (F.I.C.) for each combination is calculated in the usual manner.
(§2) In this table, the following infecting microorganisms were used:
(§3) The infecting organisms are listed by the above code; the compounds are listed by their Example number. In all instances, the dipeptide and D-cycloserine were tested at a ratio of 10:1. The CD50 combination column lists only the amount of peptide present; the D-cycloserine amount is 10% of the listed amount.

The test system of assay [2] is E. coli (Juhl). The assay can be described thus: mouse protection test, CD50 (Table III). Format: in vivo. The method, then:
as §1, §2, §3

The subject of assay [3] is E. coli (Juhl). The assay can be described thus: serial dilution in synthetic medium in test tubes, MIC and F.I.C. index (Table II). It counts as cell-based. The note with it: for MIC ppm Antibiotic: antibiotic alone. On the procedure:
The halogenated peptides alone, the antibiotic alone or mixtures of the halogenated peptides and selected antibiotics are prepared in sterile concentrated aqueous solutions at the desired ratios. Serial dilutions are made to give a range of concentrations of the test substances. Samples of the dilutions are mixed with an appropriate sterile synthetic medium in test tubes. The tubes are then inoculated with an appropriate test organism and incubated at 35°-37° C. for 16-20 hours. Minimum inhibitory concentrations, i.e., that concentration which inhibits visible growth, are read and the fractional inhibitory concentration indices (F.I.C.) are calculated. In all instances, E. coli (Juhl) was used as the infecting microorganism.

Where [4] appears, read: combination with D-cycloserine, ratio Pep/Antib. 1:8.
[5] abbreviates: E. coli (Juhl), 35-37° C., 16-20 hours.

Molecules are shown by their SMILES. Bounds are passed on as bounds.

Turning to `N[C@@H](CCC(=O)O)C(=O)N[C@H](CF)C(=O)O` [Example 9, L-Glu-βF-D-Ala], in assay [1], the “F.I.C. Index” value is listed as 0.30, the “CD50 (mg/kg) Combination” value came to 7.6 mg/kg and the “CD50 (mg/kg) Peptide” value was found to be 28.5 mg/kg. Besides, the “F.I.C. Index” value in assay [2] (E. coli (Juhl) in mice, dipeptide:D-cycloserine 10:1) amounted to 0.96. Further, the “CD50 (mg/kg) Combination” value in assay [2] (E. coli (Juhl) in mice, dipeptide:D-cycloserine 10:1, amount of peptide only listed, D-cycloserine is 10% of it) is reported as 72 mg/kg. Further, the “CD50 (mg/kg) Peptide” value in assay [2] (mice infected i.p. with E. coli (Juhl), dosed subcutaneously, 7 days survival, peptide alone) is 81 mg/kg. Moreover, in assay [3] (setting [4]), the “F.I.C. Index” value was 0.50; the “MIC ppm Pep/Antib., antibiotic part” value was found to be 3.1 ppm; the “MIC ppm Pep/Antib., peptide part” value is reported as 0.39 ppm. The “MIC ppm Peptide” value in assay [3] (peptide alone, E. coli (Juhl), 35-37° C., 16-20 hours) is greater than 800 ppm.
On to `NCC(=O)N[C@H](CF)C(=O)O` [Example 10, Gly-βF-D-Ala], for which, in assay [1], the “F.I.C. Index” value is reported as 0.27, the “CD50 (mg/kg) Combination” value is listed as 4.7 mg/kg and the “CD50 (mg/kg) Peptide” value came out at 19 mg/kg.
In the same order, the values of `CNCC(=O)N[C@H](CF)C(=O)O` [Example 11, Sar-βF-D-Ala] are 0.24, 6.2 mg/kg and 29 mg/kg.
In the same order, the values of `NCC(=O)N[C@H](CCl)C(=O)O` [Example 12, Gly-βCl-D-Ala] are 0.30, 17.4 mg/kg and 155 mg/kg.
In the same order, the values of `COC(=O)[C@@H](CF)NC(=O)[C@H](C)N.Cl` [Example 15, L-Ala-βF-D-Ala-OMe.HCl] are 0.32, 5.5 mg/kg and 18 mg/kg.
As to `CCC(N)C(=O)N[C@H](CF)C(=O)O` (stereo partly drawn) [Example 17, L-αNH2 -But-βF-D-Ala], in assay [1], the “F.I.C. Index” value is given as 0.20, the “CD50 (mg/kg) Combination” value came to 2.6 mg/kg and the “CD50 (mg/kg) Peptide” value was 13.7 mg/kg.
On the same counts, the results for `CCCCCCC(N)C(=O)N[C@H](CF)C(=O)O` (stereo partly drawn) [Example 20, D,L-α-amino-octanoyl-βF-D-Ala] are 0.10, 8.6 mg/kg and 75.9 mg/kg.
As to `CC1(C)S[C@@H]2[C@H](NC(=O)C(C(=O)O)c3ccccc3)C(=O)N2[C@H]1C(=O)O` (stereo partly drawn) [carbencillin, reference compound], the “MIC ppm Antibiotic” value in assay [3] (setting [5]) stood at 6.2 ppm.
With `CC(=O)OCC1=C(C(=O)O)N2C(=O)[C@@H](NC(=O)Cc3cccs3)[C@H]2SC1` [cephalothin, reference compound], the “MIC ppm Antibiotic” value in assay [3] (setting [5]) was 6.2 ppm.
